Consider seven compounds from patent US9260417B2, “Therapeutic methods and compositions involving allosteric kinase inhibition” (AMITECH THERAPEUTIC SOLUTIONS, INC., priority 2010, dated 2016).

One test relates to HCT116. The test is described as follows: Tumor cell viability. It is filed as cell-based, human. The following applies: Homo sapiens, HCT-116; Colon HCT116, K-Ras. The protocol:
(§1) For XTT assays, cells were grown in 96-well plates overnight and all assays were conducted in growth medium will full serum and additives. Compounds were serially diluted in DMSO and then further diluted into the medium to give the appropriate concentration while minimizing precipitation associated with serial diluting in medium alone Inhibitors were added for 72 h and cell viability was quantified at 450 nm after the addition of 1 mg/ml XTT solution (Sigma-Aldrich) in phenol-red free DMEM medium containing […] (Sigma-Aldrich). Dose-response curves were plotted using GraphPad Prism software and EC50s were calculated using this program.

The target in test [1] is B-RAF/C-RAF heterodimerization (Homo sapiens (Human), UniProt P15056). Briefly: B-RAF/C-RAF heterodimerization in HUVECs (immunoprecipitation/Western). It counts as cell-based. The following applies: ECs stimulated with bFGF or VEGF.
In a further test the test system is MCF7. Briefly: Tumor cell viability. Conditions: Homo sapiens; Breast MCF7, PI3K. It counts as cell-based. The protocol:
as §1

The test system of the next test is HT29. Briefly: Tumor cell viability. It counts as cell-based. Conditions: Homo sapiens, HT-29; Colon HT29, B-RAF V600E. The protocol: as §1
In the next test the test system is R40P. The test is described as follows: Tumor cell viability. It counts as cell-based. The following applies: Pancreatic (mouse spontaneous model) R40P, K-Ras. The procedure:
as §1

For test [2], the system named is HUVECs co-cultured with hTERT-human hepatic stellate cells. Briefly: Stellate cell/endothelial cell co-culture tube formation assay. It is filed as cell-based. Conditions: […] 6, […] 3, 1.0 μM imatinib, 0.5 μM GW 5074. The procedure:
One representative panel from 3 independent experiments is shown. […] Scale bar=200 μm.
The stellate cells were washed in PBS and mixed with early passage HUVECs (p<5) at a ratio of 1:4 and mixed into a 3.75 mg/ml Type 1 Rat tail collagen matrix (BD Biosciences) in M-199 media. 30 μl of this mixture was seeded onto each well of a half-area 96 well plate (Corning). The collagen was allowed to polymerize for 30 min at 37° C. and […] of complete EBM-2 media was added to each well. Various inhibitors were serially diluted in DMSO and subsequently added to duplicate wells 6 h post cell seeding. […] The endothelial tubes and the stellate cells were imaged at 48 h with a 10× objective on a confocal microscope. Images were collected across five fields per well.
Stellate cell/endothelial cell tube formation assay and mouse matrigel model. This assay was performed as described in the SI Methods. The stellate cells were a gift from Dr. David Brenner and previously described (Schnabl, et al. (2002) Laboratory investigation; a journal of technical methods and pathology 82:323-333). […] The mouse matrigel model was performed as previously described (Eliceiri, et al. (1999) Molecular cell 4:915-924 5) and further details of immunohistochemistry and animal dosing can be found herein.
To validate the findings of Example 10, a co-culture angiogenesis assay was utilized to evaluate similar combinations of PDGFR and RAF inhibitors. In the assay, HUVECs are mixed with hepatic stellate cells (a pericyte found in the perisinusoidal space of the liver) in a 3D-collagen gel. The co-culture produced endothelial tubes with pericyte contacts (from the stellate cells) that can be imaged and quantified as shown in FIGS. 4B and C.

In test [3] the test system is Tg(fli1:EGFP) zebrafish embryos. Briefly: Zebrafish angiogenesis model. The following applies: for intersegmental vessel formation: treated 16-48 hpf, 5 μM imatinib, 1 μM GW 5074, alone or combined. The protocol: Embryos were treated with 1 μM 6 or SU5416, or 10 μM 3 from 20 hours post fertilization (hpf) until 48 hpf. Representative 3D reconstructions of the blood vasculature are shown for both the head and tail regions of the embryo. Designations for the major vessels in the head and tail of the zebrafish embryo at 48 hpf are available in FIG. 8A. (FIG. 3B) Disruption of lumen formation in the zebrafish during late vessel maturation. Zebrafish treated with either 1 μM 6 or 10 μM 3 from 20-48 hpf were imaged at 35 and 48 hpf. […] Shown is 3D overlap reconstruction of the GFP expressing intersegmental vessels with TUNEL-positive nuclei at 48 hpf (shown in red). Representative phase contrast views as well as quantification of intersegmental vessel volumes from FIG. 3A and FIG. 3B can be found in FIG. 8B-D, respectively. (FIG. 3C) Time course of drug addition to zebrafish. […] At 30 hpf the zebrafish embryos established early vessels with evident lumens. […] All scale bars=100 μm.
Z-stacks from laser scanning confocal microscopy are shown depicting formation of the intersegmental vessels at 48 hpf. n=6 embryos/treatment. (FIG. 4B) HUVECs were co-cultured with hTERT-human hepatic stellate cells in a 3-D collagen matrix in the presence of complete EBM-2 medium to monitor pericyte-associated endothelial tube formation. […] The endothelial tubes were stained at 24 h by adding 2 μl FITC labeled Ulex europaeus lectin (Vector labs) per well. Images were acquired 48 h post seeding of the cells. One representative panel from 3 independent experiments is shown. Green—FITC lectin labeled endothelial cells, Red—DiIC(3) labeled stellate cells. […] Scale bar=200 μm. (FIG. 4C) Tube lengths were measured using Metamorph software for each tube for all 10 fields that were acquired. The % pericyte-covered tube length was calculated from the ratio of tube length sums for the tubes with and without pericyte contact. Error bars are reported as ±SEM of two wells per group. *indicates p<0.05 compared to DMSO group.
Zebrafish studies. Transgenic Tg(fli1:EGFP) zebrafish embryos were purchased from www.zfin.org and reported elsewhere (Lawson, et al. (2002) Dev Biol 248:307-318) and maintained according to (“Zebrafish—A Practical Approach”, Oxford University Press, 2002). Compounds in DMSO stock solutions were diluted directly into the water and vessels were imaged for GFP expression using a Nikon c1-si confocal microscope. Apoptosis was measured by TUNEL staining using the Apoptag in situ Red Fluorescence Kit (Chemicon) with a protocol described previously (Stanton, et al. (2006) The Journal of biological chemistry 281:28782-28793).

The subject of another test is A549 cells. The test is described as follows: Cell proliferation assay (BrdU ELISA) in A549 cells. Conditions: A549, low serum DMEM (0.5% FBS), 72 h. It counts as cell-based. The protocol:
A549 cells, which endogenously express oncogenic K-RAS, were plated at 2500 cells/well of a 96-well plate in low serum DMEM (0.5% fetal bovine serum) overnight. The next morning, compounds were serially diluted in DMSO and resuspended in fresh DMEM+0.5% medium, which was added to the cells for 72 h. At this time point the cells were fixed and proliferation was quantified using an ELISA for bromodeoxyuriding incorporation (BrdU ELISA, Millipore, Inc.). BrdU incorporation occurs during S phase and is the classical method for determining cell proliferation rates. In FIG. 14B-C, BrdU incorporation is expressed as a percentage of the BrdU incorporation occurring in cells treated with 0.1% DMSO as control. A dotted line represents the growth rate of cells treated with DMSO alone. […] (FIG. 13C)

A further test relates to XPA-1 cells. The test is described as follows: Cell cycle analysis of XPA-1 cells (flow cytometry). The following applies: 5 μM, 20 h. It is filed as cell-based. The procedure: For cell cycle analysis, cells were grown in complete DMEM+10% FBS in the presence of each inhibitor and harvested after 20 h of inhibitor treatment. Cell cycle analysis was performed by flow cytometry following propidium iodide staining. The cells were harvested, fixed with ice cold methanol, treated for 45 min with 10 μg/ml of RNAse and resuspended in PBS containing 10 μg/ml of PI, and analysed by flow cytometry. […] For corresponding confocal microscopy images, cells attached to coverslips were fixed with cold methanol and permeabilized in PBS containing 0.1% triton X-100 for two minutes and blocked for 60 minutes, at room temperature with 2% BSA in PBS. Cells were stained with the DNA binding dye TOPRO-3 (Invitrogen) to label the DNA and laminB (Santa Cruz) to label the nuclear envelope. The anti-Lamin B antibody was used at a 1:100 dilution for two hours at room temperature. After washing several times with PBS, cells were stained for two hours at room temperature, with secondary antibody diluted 1:300 and co-incubated with TOPRO-3 (1:500) (Invitrogen). Samples were mounted in Vectashield hard-set mounting media (Vector Laboratories) and imaged on a Nikon Eclipse Cl confocal microscope with a 1.4 NA 60× oil-immersion lens, using minimum pinhole (30 μm). Images were captured and processed using EZ-C1 3.50 imaging software (Nikon, Inc). Scale bars, 10 μm.
A general note: Flow cytometry measures light scatter and fluorescence of single cells or particles in a stream.

The EC50 is the concentration that produces a half-maximal response. Read a high EC50 as lower potency in that assay.

Sequence of B-RAF/C-RAF heterodimerization (P15056 whole entry, one chain of several): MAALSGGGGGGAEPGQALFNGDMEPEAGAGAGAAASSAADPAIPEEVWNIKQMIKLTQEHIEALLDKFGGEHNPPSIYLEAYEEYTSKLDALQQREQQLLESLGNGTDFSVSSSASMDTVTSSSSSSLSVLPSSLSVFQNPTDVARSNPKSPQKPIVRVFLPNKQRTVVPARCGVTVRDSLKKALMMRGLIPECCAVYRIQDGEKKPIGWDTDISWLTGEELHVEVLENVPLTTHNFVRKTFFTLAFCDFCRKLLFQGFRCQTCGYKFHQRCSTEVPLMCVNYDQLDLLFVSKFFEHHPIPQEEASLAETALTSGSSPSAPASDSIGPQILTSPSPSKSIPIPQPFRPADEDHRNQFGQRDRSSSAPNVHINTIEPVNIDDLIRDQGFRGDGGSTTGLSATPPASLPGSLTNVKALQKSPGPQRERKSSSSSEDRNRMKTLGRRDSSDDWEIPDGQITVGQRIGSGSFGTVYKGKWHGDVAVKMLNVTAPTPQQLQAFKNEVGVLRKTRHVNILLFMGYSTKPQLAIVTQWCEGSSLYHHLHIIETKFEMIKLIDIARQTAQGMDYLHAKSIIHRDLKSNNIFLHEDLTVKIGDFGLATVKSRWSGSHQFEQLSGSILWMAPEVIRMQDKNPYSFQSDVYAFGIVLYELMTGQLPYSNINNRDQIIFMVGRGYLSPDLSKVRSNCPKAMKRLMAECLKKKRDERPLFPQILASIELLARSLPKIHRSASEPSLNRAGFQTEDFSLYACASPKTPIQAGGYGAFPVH

For the compound `N#CC(=C(/N)Sc1ccccc1N)/C(C#N)=C(\N)Sc1ccccc1N` [Compound U0126], the half-maximal effective concentration (EC50) is above 20 µM in the test with HCT116, above 20 µM in the test on MCF7, 4.41 µM in the test on HT29 and 10.9 µM with R40P. In addition, in test [1], the B-RAF/C-RAF heterodimer formation entry is “greatly increased”.
Consider `O=C1Nc2ccc(I)cc2/C1=C/c1cc(Br)c(O)c(Br)c1` [GW 5074, reference compound], for which the “endothelial tube formation and % pericyte-covered tube length” value in test [2] is recorded as “did not affect pericyte coverage or tube length”. Further, in test [3], the intersegmental vessel formation result was “do not have an effect on intersegmental vessel formation”.
For `Oc1cc(-c2nc(-c3ccccc3)[nH]c2-c2ccncc2)ccc1Cl` [L-779,450], the “cell proliferation (BrdU incorporation) versus DMSO control” value in the test with A549 cells is given as “induce hyperproliferation”.
In the case of `O=C(NOC[C@H](O)CO)c1ccc(F)c(F)c1Nc1ccc(I)cc1F` [PD0325901, reference compound], the “cell cycle / mitotic progression” value in the test on XPA-1 cells is “had no effect on mitotic progression”.
`CCCS(=O)(=O)Nc1ccc(F)c(C(=O)c2c[nH]c3ncc(Cl)cc23)c1F` [PLX 4720]: in the test on A549 cells, the “cell proliferation (BrdU incorporation) versus DMSO control” value is recorded as “induce hyperproliferation”.
As to `Cc1cc(C)c(C=C2C(=O)Nc3ccccc32)[nH]1` [SU5416, 3-[(2,4-dimethylpyrrol-5-yl)methylene]-2-indolinone], the “blood vessel formation in zebrafish embryos” value in [3] (treated 20-48 hpf, 1 μM 6 or SU5416, up to 10 μM 3) is “completely disrupting endothelial cell migration and neovascularization in the tail”.
Turning to `Cc1ccc(NC(=O)c2ccc(CN3CCN(C)CC3)cc2)cc1Nc1nccc(-c2cccnc2)n1` [imatinib, reference compound], in [2], the “endothelial tube formation and % pericyte-covered tube length” value is on record as “did not affect endothelial tube formation”. Further, the intersegmental vessel formation entry in [3] is recorded as “do not have an effect on intersegmental vessel formation”.
